# Reference: patent US20250213558A1, “T-TYPE CALCIUM CHANNEL MODULATORS COMPRISING A PIPERAZINE OR 1,4-DIAZEPANE CORE AND METHODS OF USE THEREOF” (Praxis Precision Medicines, Inc., priority 2022, published 2025)
# Read-outs that look alike come from different tables or passages of the source.
# Biological target: T1, Human Cav3.1 calcium channel (Homo sapiens, UniProt O43497)
# T1 construct: expressed in transfected cells; host or cells: HEK-293 natClytin/TASK1+Cav3.1 cell line
# Experiment: Human Cav3.1 calcium channel patch clamp assay (SyncroPatch 384PE; single point and IC50, voltage dependent block)
# Type: cell-based
# Conditions: for % Inhibition (Single Point Data): patch clamp
# Method in brief: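 Automated whole-cell patch clamp at room temperature, cells held at −120 mV; 100 ms step to −20 mV (resting block), then 1600 ms at −65 mV and a second −20 mV step (voltage-dependent block), every 15 s. Peak currents averaged over last 3 sweeps; % inhibition relative to nickel-sensitive current.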
# [1] = Testing Conc 1.25, HEK-293 natClytin/TASK1+Cav3.1 cell line
# [2] = voltage dependent block (VDB), HEK-293 natClytin/TASK1+Cav3.1 cell line, read-out: Cav3.1 IC50
# [3] = Testing Conc 1, HEK-293 natClytin/TASK1+Cav3.1 cell line
# T1 sequence (O43497 whole entry): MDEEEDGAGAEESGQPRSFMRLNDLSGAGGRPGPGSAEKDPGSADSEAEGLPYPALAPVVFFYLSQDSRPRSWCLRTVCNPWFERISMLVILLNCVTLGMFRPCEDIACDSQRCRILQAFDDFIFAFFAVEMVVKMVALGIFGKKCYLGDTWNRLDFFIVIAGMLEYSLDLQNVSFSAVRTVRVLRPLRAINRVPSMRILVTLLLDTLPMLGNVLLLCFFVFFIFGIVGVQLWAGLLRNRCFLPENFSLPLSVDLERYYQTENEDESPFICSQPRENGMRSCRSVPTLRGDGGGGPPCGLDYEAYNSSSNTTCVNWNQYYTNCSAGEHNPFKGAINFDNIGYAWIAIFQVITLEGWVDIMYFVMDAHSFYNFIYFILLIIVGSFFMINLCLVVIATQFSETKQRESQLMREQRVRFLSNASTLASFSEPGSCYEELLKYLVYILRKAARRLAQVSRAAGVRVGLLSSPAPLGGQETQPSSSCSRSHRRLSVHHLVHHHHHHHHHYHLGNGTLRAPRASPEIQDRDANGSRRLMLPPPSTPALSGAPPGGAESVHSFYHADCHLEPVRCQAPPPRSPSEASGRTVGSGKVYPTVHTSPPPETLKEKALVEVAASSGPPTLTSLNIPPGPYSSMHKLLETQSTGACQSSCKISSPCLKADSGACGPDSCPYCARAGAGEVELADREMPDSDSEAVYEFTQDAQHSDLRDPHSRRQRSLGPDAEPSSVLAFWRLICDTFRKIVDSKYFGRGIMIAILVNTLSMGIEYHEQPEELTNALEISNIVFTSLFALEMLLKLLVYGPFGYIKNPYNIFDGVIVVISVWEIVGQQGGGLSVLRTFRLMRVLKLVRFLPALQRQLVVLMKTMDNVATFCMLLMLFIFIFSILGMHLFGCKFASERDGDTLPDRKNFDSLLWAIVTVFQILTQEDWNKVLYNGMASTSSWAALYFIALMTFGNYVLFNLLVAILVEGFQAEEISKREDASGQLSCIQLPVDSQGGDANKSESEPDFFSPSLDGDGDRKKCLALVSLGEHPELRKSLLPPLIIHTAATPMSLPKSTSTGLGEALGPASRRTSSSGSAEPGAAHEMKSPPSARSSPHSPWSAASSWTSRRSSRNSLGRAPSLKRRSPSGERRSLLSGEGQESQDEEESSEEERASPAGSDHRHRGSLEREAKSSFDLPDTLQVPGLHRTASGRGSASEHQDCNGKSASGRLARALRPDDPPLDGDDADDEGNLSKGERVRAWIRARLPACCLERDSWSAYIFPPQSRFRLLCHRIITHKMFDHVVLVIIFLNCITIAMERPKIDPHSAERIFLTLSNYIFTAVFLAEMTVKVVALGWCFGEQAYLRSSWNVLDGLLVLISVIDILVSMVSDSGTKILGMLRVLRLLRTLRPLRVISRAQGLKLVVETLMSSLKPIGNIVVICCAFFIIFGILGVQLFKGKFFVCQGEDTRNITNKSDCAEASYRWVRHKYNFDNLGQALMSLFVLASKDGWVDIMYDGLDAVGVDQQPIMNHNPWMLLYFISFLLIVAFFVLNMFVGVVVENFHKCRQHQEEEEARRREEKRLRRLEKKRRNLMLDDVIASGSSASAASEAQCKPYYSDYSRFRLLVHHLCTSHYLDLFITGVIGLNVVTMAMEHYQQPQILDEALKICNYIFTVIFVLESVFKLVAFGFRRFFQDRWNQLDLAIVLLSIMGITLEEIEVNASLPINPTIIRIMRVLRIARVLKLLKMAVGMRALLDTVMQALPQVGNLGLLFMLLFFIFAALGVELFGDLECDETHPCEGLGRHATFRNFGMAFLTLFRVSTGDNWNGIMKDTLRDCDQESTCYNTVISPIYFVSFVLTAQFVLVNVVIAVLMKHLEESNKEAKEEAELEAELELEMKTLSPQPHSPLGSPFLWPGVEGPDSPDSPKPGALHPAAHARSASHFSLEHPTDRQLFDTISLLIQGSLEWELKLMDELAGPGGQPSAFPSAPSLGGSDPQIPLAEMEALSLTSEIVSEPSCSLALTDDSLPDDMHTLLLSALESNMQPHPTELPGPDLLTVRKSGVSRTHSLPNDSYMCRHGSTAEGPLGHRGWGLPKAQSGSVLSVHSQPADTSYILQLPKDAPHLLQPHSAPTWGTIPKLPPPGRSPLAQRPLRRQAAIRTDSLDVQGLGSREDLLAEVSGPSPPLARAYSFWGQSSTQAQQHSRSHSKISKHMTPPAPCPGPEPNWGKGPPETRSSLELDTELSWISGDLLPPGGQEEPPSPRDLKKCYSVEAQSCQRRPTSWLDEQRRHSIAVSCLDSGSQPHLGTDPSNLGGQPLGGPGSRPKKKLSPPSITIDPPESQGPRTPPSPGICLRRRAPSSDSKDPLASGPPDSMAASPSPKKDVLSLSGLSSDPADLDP
compound,measurement,setting,value
COc1cc(Cl)cc(NC(=O)CN2C[C@@H]3C[C@H]2CN3CC(=O)NC(C)(C)C)c1 [Compound 282],% Inhibition (Single Point Data),[1],98.739%
same,IC50,[2],74.8 nM
CC(C)(C)NC(=O)CN1C[C@@H]2C[C@H]1CN2CC(=O)NCC12CC3CC(CC(C3)C1)C2 [Compound 285],% Inhibition (Single Point Data),[1],45.897%
same,IC50,[2],1270 nM
CC(C)(C)NC(=O)CN1CC2CC1CN2CC(=O)Nc1ccc(F)c(Cl)c1 (stereo not drawn) [Compound 233],% Inhibition (Single Point Data),[1],83.643%
same,IC50,[2],232 nM
CC(C(=O)Nc1cc(F)cc(OC(F)F)c1)N1C[C@@H]2C[C@H]1CN2CC(=O)NC(C)(C)C (stereo partly drawn) [Compound 265],% Inhibition (Single Point Data),[1],88.764%
O=C(CN1C[C@@H]2C[C@H]1CN2CC(=O)NC1(C(F)(F)F)CC1)Nc1ccc(F)c(Cl)c1 [Compound 25],% Inhibition (Single Point Data),[1],66.125%
same,IC50,[2],457 nM
CC(C)(C)NC(=O)CN1C2CC1CN(CC(=O)Nc1cc(F)c(F)c(OC(F)F)c1)C2 [Compound 360],IC50,[2],76 nM
CC(C)(CCN1C2CC1CN(Cc1nc3c(Cl)cc(F)cc3[nH]1)C2)C(F)(F)F [Compound 172],% Inhibition (Single Point Data),[1],94.964%
CC(C)(C)NC(=O)CN1C[C@@H]2C[C@H]1CN2CC(=O)Nc1cc(F)c(F)c(OC(F)F)c1 [Compound 356],IC50,[2],74 nM
CC(C)(C)NC(=O)CN1CCN(CC(=O)Nc2cc(F)cc(Cl)c2)C(=O)C1 [Compound 35],% Inhibition (Single Point Data),[3],42.822%
CC(C)(C)NC(=O)CN1C2CC1CN(CC(=O)Nc1cc(F)ccc1C#N)C2 [Compound 219],% Inhibition (Single Point Data),[1],35.823%
Fc1cc(Cl)c2nc(CN3CC4CC(C3)N4CCOC3CCOCC3)[nH]c2c1 [Compound 146],% Inhibition (Single Point Data),[1],41.657%
same,IC50,[2],1280 nM
CC(C)(C)NC(=O)CN1C[C@H]2C[C@@H]1CN2CC(=O)Nc1cc(F)cc(Cl)c1 [Compound 59],% Inhibition (Single Point Data),[1],49.275%
same,IC50,[2],925 nM
CC(C)(C)NC(=O)CN1C2CC1CN(CC(=O)Nc1cc(F)cc(Cl)c1)C2 [Compound 10],% Inhibition (Single Point Data),[1],83.732%
same,IC50,[2],143 nM
"CC(C)(C)NC(=O)CN1CCN(Cc2nnc(-c3cc(F)cc(Cl)c3)[nH]2)CC1 [Compound 61, N-tert-butyl-2-[4-[[5-(3-chloro-5-fluoro-phenyl)-4H-1,2,4-triazol-3-yl]methyl]piperazin-1-yl]acetamide]",% Inhibition (Single Point Data),[3],40.739%
same,IC50,[2],2800 nM
Cc1cc(Cl)cc(NC(=O)CN2CC3CC(C2)N3CC(=O)NC(C)(C)C)c1 [Compound 305],% Inhibition (Single Point Data),[1],101.69%
same,IC50,[2],199 nM
CC1(C)CCN1C(=O)CN1C2CCC1CN(Cc1nc3c(Cl)cc(F)cc3[nH]1)C2 [Compound 86],% Inhibition (Single Point Data),[1],103.03%
same,IC50,[2],150 nM
CC(C(=O)Nc1cc(F)cc(Cl)c1)N1C[C@@H]2C[C@H]1CN2CC(=O)NC1(C(F)(F)F)CC1 (stereo partly drawn) [Compound 262],% Inhibition (Single Point Data),[1],87.794%
same,IC50,[2],215 nM
CC(C)(C)NC(=O)CN1C2CC1CN(Cc1nc3c(F)ccc(F)c3[nH]1)C2 [Compound 165],% Inhibition (Single Point Data),[1],87.314%
CC(C)(C)NC(=O)CN1C[C@@H]2C[C@H]1CN2CC(=O)Nc1ccc(Cl)c(OC(F)F)c1 [Compound 357],IC50,[2],82 nM
CC(C)(C)NC(=O)CN1C[C@@H]2C[C@H]1CN2C(=O)NCC12CC3CC(CC(C3)C1)C2 [Compound 290],% Inhibition (Single Point Data),[1],8.7515%
CC(C)(C)NC(=O)CN1C[C@@H]2CC[C@H]1CN2CC(=O)Nc1ccc(F)c(Cl)c1 [Compound 271],% Inhibition (Single Point Data),[1],70.509%
same,IC50,[2],581 nM
CC(C)(C)NC(=O)CN1C2CC1CN(Cc1nc3c(Cl)cc(N)cc3o1)C2 [Compound 111],% Inhibition (Single Point Data),[1],35.454%
CC(C)(NC(=O)CN1CC2CC1CN2CC(=O)Nc1ccc(F)c(Cl)c1)C(F)(F)F (stereo not drawn) [Compound 235],% Inhibition (Single Point Data),[1],92.093%
same,IC50,[2],226 nM
CC1(C)CCN(C(=O)CN2C3CCC2CN(Cc2nc4c(Cl)cc(F)cc4[nH]2)C3)C1 [Compound 93],% Inhibition (Single Point Data),[1],93.884%
same,IC50,[2],284 nM
Fc1cc(Cl)c2nc(CN3CC4CCC(C3)N4CCC3CCCC3)[nH]c2c1 [Compound 84],% Inhibition (Single Point Data),[1],101%
CN(C(=O)CN1C2CC1CN(Cc1nc3c(Cl)cc(F)cc3[nH]1)C2)C1(C)CCC1 [Compound 100],% Inhibition (Single Point Data),[1],88.827%
O=C(CN1CC2CC(C1)N2CC1(O)CCC(F)(F)CC1)NC12CC3CC(CC(C3)C1)C2 [Compound 278],% Inhibition (Single Point Data),[1],45.568%
same,IC50,[2],1210 nM
O=C(CN1C[C@@H]2C[C@H]1CN2CC1(F)CCC(F)(F)CC1)NC12CC3CC(CC(C3)C1)C2 [Compound 279],% Inhibition (Single Point Data),[1],79.691%
same,IC50,[2],4020 nM
O=C(CN1CC2CC(C1)N2CCC1CCOCC1)NC12CC3CC(CC(C3)C1)C2 [Compound 292],% Inhibition (Single Point Data),[1],11.934%
same,IC50,[2],4770 nM
Cc1ccc(C#N)c2nc(CN3CC4CC(C3)N4CC(=O)NC(C)(C)C)[nH]c12 [Compound 177],% Inhibition (Single Point Data),[1],87.595%
OC1(CN2C3CC2CN(Cc2nc4c(Cl)cc(F)cc4[nH]2)C3)CCC(F)(F)CC1 [Compound 151],% Inhibition (Single Point Data),[1],95.252%
Fc1cc(Cl)c2nc(CN3CCN(Cc4cc5ccccc5[nH]4)CC3)[nH]c2c1 [Compound 72],% Inhibition (Single Point Data),[1],81.94%
same,IC50,[2],395 nM
O=C(CN1CC2CC(C1)N2CCS(=O)(=O)c1ccccc1)Nc1cc(F)cc(Cl)c1 [Compound 171],% Inhibition (Single Point Data),[1],34.047%
same,IC50,[2],1420 nM
C[C@@H](c1nc2c(Cl)cc(F)cc2[nH]1)N1CC2CCC(C1)N2CC(=O)NC(C)(C)C [Compound 119],% Inhibition (Single Point Data),[1],95.894%
CC(C)(C)NC(=O)CN1CC2CC1CN2Cc1nc2c(Cl)cc(F)cc2[nH]1 (stereo not drawn) [Compound 126],% Inhibition (Single Point Data),[1],94.215%
COc1cc(F)cc2[nH]c(CN3CC4CC(C3)N4CCC3CCC(F)(F)CC3)nc12 [Compound 158],% Inhibition (Single Point Data),[1],92.557%
same,IC50,[2],148 nM
Fc1cc(Cl)c2nc(CN3CC4CC(C3)N4CCC3(F)CCCC3)[nH]c2c1 [Compound 113],% Inhibition (Single Point Data),[1],94.677%
CC(C)(C)NC(=O)CN1CCC(=O)N(CC(=O)Nc2cc(F)cc(Cl)c2)CC1 [Compound 37],% Inhibition (Single Point Data),[3],25.144%
CC(C)(C)NC(=O)CN1C2CCC1CN(Cc1nc3c(C(F)F)cccc3[nH]1)C2 [Compound 202],% Inhibition (Single Point Data),[1],100.89%
CC(C)(C)NC(=O)CN1C[C@@H]2C[C@H]1CN2CC(=O)NC12CC3CC(CC(Cl)(C3)C1)C2 [Compound 344],% Inhibition (Single Point Data),[1],79.298%
same,IC50,[2],417 nM
COc1ccc(F)c2[nH]c(CN3CC4CC(C3)N4CC(=O)NC(C)(C)C)nc12 [Compound 175],% Inhibition (Single Point Data),[1],89.419%
same,IC50,[2],147 nM
Fc1cc(Cl)c2nc(CN3CC4CCC(C3)N4CCN3CCC(F)(F)CC3)[nH]c2c1 [Compound 90],% Inhibition (Single Point Data),[1],99.043%
CC(C)(C)NC(=O)CN1C2CC1CN(CC(=O)Nc1ccn(Cc3ccc(C#N)cn3)n1)C2 [Compound 313],% Inhibition (Single Point Data),[1],−11.969%
O=C(CN1CC2CC(C1)N2CC(=O)NC1(C(F)(F)F)CC1)Nc1ccc(F)c(C(F)F)c1 [Compound 252],% Inhibition (Single Point Data),[1],72.234%
same,IC50,[2],579 nM
CC(C)(C)NC(=O)CN1C[C@@H]2C[C@H]1CN2CC(=O)Nc1ccn(Cc2ccc(C#N)cn2)n1 [Compound 314],% Inhibition (Single Point Data),[1],5.0515%
CC1(OC(=O)CN2C3CC2CN(Cc2nc4c(Cl)cc(F)cc4[nH]2)C3)CC1 [Compound 140],% Inhibition (Single Point Data),[1],79.539%
same,IC50,[2],283 nM
COc1cc(NC(=O)CN2CC3CC(C2)N3CC(=O)NC(C)(C)C)ccc1Cl [Compound 331],% Inhibition (Single Point Data),[1],102.24%
CN(C(=O)CN1C2CC1CN(Cc1nc3c(Cl)cc(F)cc3[nH]1)C2)C(C)(C)CO [Compound 128],% Inhibition (Single Point Data),[1],18.511%
O=C(CN1CCN(CCC2CCOCC2)CC1=O)Nc1cc(F)cc(Cl)c1 [Compound 38],% Inhibition (Single Point Data),[3],30.86%
Cc1cc(CNC(=O)CN2CCN(CC(=O)NC(C)(C)C)CC2)nn1-c1ccccc1 [Compound 2],% Inhibition (Single Point Data),[3],40.057%
CC(C)(C)CCCN1C2CC1CN(Cc1nc3c(Cl)cc(F)cc3[nH]1)C2 [Compound 107],IC50,,< 78.2 nM
same,% Inhibition (Single Point Data),[1],101.43%
CC(C(=O)NC(C)(C)C)N1C2CC1CN(CC(=O)Nc1ccc(F)c(OC(F)F)c1)C2 (stereo not drawn) [Compound 254],% Inhibition (Single Point Data),[1],93.503%
same,IC50,[2],115 nM
CC(C)(C)NC(=O)CN1C[C@H]2COC[C@@H](C1)[C@@H]2CC(=O)Nc1cc(F)cc(Cl)c1 [Compound 372],IC50,[2],162 nM
O=C(CN1C[C@@H]2C[C@H]1CN2CC(=O)N1CCC(F)(F)CC1)NC12CC3CC(CC(C3)C1)C2 [Compound 316],% Inhibition (Single Point Data),[1],70.161%
same,IC50,[2],370 nM
